Assay results from patent US12410166B2, “Sulfonylamidine substituted compounds and their use as beta-lactamase inhibitors” (NINGXIA ACADEMY OF AGRICULTURE AND FORESTRY SCIENCES, priority 2021, dated 2025).
Where two headings read alike, the source gives them in different places.

Assays:
Assay in all cases: MIC by broth microdilution (antibacterial and synergistic activity)
Format in all cases: cell-based
[1] = tested on: A. baumannii 19606 (strain 8, OXA-24); settings: for MIC: Acinetobacter baumannii
Procedure: (§1) Compounds of the present invention alone, avibactam (AVI) alone, relebactam (REL) alone, meropenem (MER) alone, imipenem (IMI) alone, and as a combination of compounds of the present invention, or avibactam or relebactam with test antibiotic (meropenem or imipenem) was tested for antimicrobial activity by determining minimum inhibitory concentration (MIC, mg/L) using the broth microdilution method according to the guidelines of the Clinical Laboratories and Standards Institute (“Methods for Dilution Antimicrobial Susceptibility Tests for Bacterial that Grow Aerobically”, Approved standard, 7th ed., Clinical and Laboratories Standards Institute (CLSI) Document M7-A8, Wayne, Pa., USA, 2009). Meropenem or imipenem as a test antibiotic compound was dissolved in DMSO, and then diluted in microbial growth medium (Mueller-Hinton Broth II, cation adjusted) resulting in a final concentration range of 0.031-64 mg/L in serial two-fold dilution. In all cases the final DMSO concentration was less than 0.5%. Bacteria were added to 96-well microtitre plates containing the serial two-fold dilutions of the compounds; the final cell density was approximately 5×10^5 colony forming units/mL (CFU/mL). Plates were incubated at 37° C. for 18-24 hours and read visually. The MIC, i.e. the lowest concentration of the test compound that inhibited visible growth of the bacteria, was recorded. The same assay conditions were used when the compounds of present invention alone, avibactam or relebactam alone (as a control), and as a combination of the present invention each compound, or avibactam or relebactam with test meropenem or imipenem antibiotic compound was tested for minimum inhibitory concentration (MIC, mg/L). While test meropenem or imipenem was serially diluted as described above, a constant concentration of avibactam, or relebactam or the present invention each compound of 4 mg/L was used.
(§2) Bacterial strains that were used to evaluate the antimicrobial activity using the MIC determination included but were not limited to E. coli clinical isolate (strain 1, TEM-1), E. coli 8739 (strain 2, CTX-M15), K. pneumoniae clinical isolate (strain 3, SHV-1), K. pneumoniae 700603 (strain 4, KPC-3, TEM-1), E. cloacae clinical isolate (strain 5, P99), E. cloacae 700323 (strain 6, AmpC), A. baumannii clinical isolate (strain 7, OXA-23, OXA-40), A. baumannii 19606 (strain 8, OXA-24), P. aeruginosa clinical isolate (strain 9, KPC-2), P. aeruginosa 9027 (strain 10, AmpC).

[2] = tested on: A. baumannii clinical isolate (strain 7, OXA-23, OXA-40); settings: strain 7 (OXA-23/40); for MIC: Acinetobacter baumannii; for MIC of imipenem in combination with the inhibitor (IMI + inhibitor) / MIC of meropenem in combination with the inhibitor (MER + inhibitor): inhibitor at constant 4 mg/L
Procedure: as §1, §2

[3] = tested on: E. cloacae 700323 (strain 6, AmpC); settings: strain 6 (AmpC); for MIC: Enterobacter cloacae; for MIC of imipenem in combination with the inhibitor (IMI + inhibitor) / MIC of meropenem in combination with the inhibitor (MER + inhibitor): inhibitor at constant 4 mg/L
Procedure: as §1, §2

[4] = tested on: E. cloacae clinical isolate (strain 5, P99); settings: strain 5 (P99); for MIC: Enterobacter cloacae; for MIC of imipenem in combination with the inhibitor (IMI + inhibitor) / MIC of meropenem in combination with the inhibitor (MER + inhibitor): inhibitor at constant 4 mg/L
Procedure: as §1, §2

[5] = tested on: E. coli 8739 (strain 2, CTX-M15); settings: for MIC: Escherichia coli, read-out: Antibacterial activity, MIC, inhibitor Alone
Procedure: as §1, §2

[6] = tested on: E. coli clinical isolate (strain 1, TEM-1); settings: strain 1 (TEM-1); for MIC: Escherichia coli; for MIC of imipenem in combination with the inhibitor (IMI + inhibitor) / MIC of meropenem in combination with the inhibitor (MER + inhibitor): inhibitor at constant 4 mg/L
Procedure: as §1, §2

[7] = tested on: K. pneumoniae 700603 (strain 4, KPC-3, TEM-1); settings: strain 4 (KPC-3, TEM-1); for MIC: Klebsiella pneumoniae; for MIC of imipenem in combination with the inhibitor (IMI + inhibitor) / MIC of meropenem in combination with the inhibitor (MER + inhibitor): inhibitor at constant 4 mg/L
Procedure: as §1, §2

[8] = tested on: K. pneumoniae clinical isolate (strain 3, SHV-1); settings: strain 3 (SHV-1); for MIC: Klebsiella pneumoniae; for MIC of imipenem in combination with the inhibitor (IMI + inhibitor) / MIC of meropenem in combination with the inhibitor (MER + inhibitor): inhibitor at constant 4 mg/L
Procedure: as §1, §2

[9] = tested on: P. aeruginosa 9027 (strain 10, AmpC); settings: strain 10 (AmpC); for MIC: Pseudomonas aeruginosa; for MIC of imipenem in combination with the inhibitor (IMI + inhibitor) / MIC of meropenem in combination with the inhibitor (MER + inhibitor): inhibitor at constant 4 mg/L
Procedure: as §1, §2

[10] = tested on: P. aeruginosa clinical isolate (strain 9, KPC-2); settings: strain 9 (KPC-2); for MIC: Pseudomonas aeruginosa; for MIC of imipenem in combination with the inhibitor (IMI + inhibitor) / MIC of meropenem in combination with the inhibitor (MER + inhibitor): inhibitor at constant 4 mg/L
Procedure: as §1, §2

[11] = read-out: Antibacterial activity, MIC, inhibitor Alone
[12] = compound alone, no antibiotic, read-out: Antibacterial activity, MIC, inhibitor Alone
[13] = strain 8 (OXA-24), inhibitor at constant 4 mg/L
[14] = imipenem alone, read-out: MIC, IMI Alone
[15] = meropenem alone, read-out: MIC, MER Alone

Structure (SMILES): NC(=O)[C@@H]1CC[C@@H]2CN1C(=O)N2OS(=O)(=O)O [AVI, avibactam, reference compound]
- MIC [1, 11]: > 64 µg/mL
- MIC [2, 12]: > 64 µg/mL
- MIC [3, 12]: > 64 µg/mL
- MIC [4, 12]: > 64 µg/mL
- MIC [5]: > 64 µg/mL
- MIC [6, 12]: > 64 µg/mL
- MIC [7, 12]: > 64 µg/mL
- MIC [8, 12]: > 64 µg/mL
- MIC [9, 12]: > 64 µg/mL
- MIC [10, 12]: > 64 µg/mL

Structure (SMILES): N=C(NS(=O)(=O)CC(F)(F)F)[C@@H]1CC[C@@H]2CN1C(=O)N2OS(=O)(=O)[O-].[Na+] [Ex. 1, Sodium (2S,5R)-7-oxo-2-(N-((2,2,2-trifluoroethyl)sulfonyl)caramimidoyl)-1,6-diazabicyclo[3.2.1]octan-6-yl sulfate]
- Antibacterial activity, MIC, inhibitor Alone ([1]; strain 8 (OXA-24), compound alone, no antibiotic): >64 µg/mL
- MIC of imipenem in combination with the inhibitor (IMI + inhibitor) [1, 13]: 0.062 µg/mL
- MIC of meropenem in combination with the inhibitor (MER + inhibitor) [1, 13]: 0.5 µg/mL
- Antibacterial activity, MIC, inhibitor Alone ([2]; compound alone, no antibiotic): >64 µg/mL
- MIC of imipenem in combination with the inhibitor (IMI + inhibitor) [2]: 0.0625 µg/mL
- MIC of meropenem in combination with the inhibitor (MER + inhibitor) [2]: <0.125 µg/mL
- Antibacterial activity, MIC, inhibitor Alone ([3]; compound alone, no antibiotic): >64 µg/mL
- MIC of imipenem in combination with the inhibitor (IMI + inhibitor) [3]: 0.0625 µg/mL
- MIC of meropenem in combination with the inhibitor (MER + inhibitor) [3]: <0.125 µg/mL
- Antibacterial activity, MIC, inhibitor Alone ([4]; compound alone, no antibiotic): >64 µg/mL
- MIC of imipenem in combination with the inhibitor (IMI + inhibitor) [4]: 1 µg/mL
- MIC of meropenem in combination with the inhibitor (MER + inhibitor) [4]: <0.125 µg/mL
- Antibacterial activity, MIC, inhibitor Alone ([5]; strain 2 (CTX-M15), compound alone, no antibiotic): >64 µg/mL
- Antibacterial activity, MIC, inhibitor Alone ([6]; compound alone, no antibiotic): >64 µg/mL
- MIC of imipenem in combination with the inhibitor (IMI + inhibitor) [6]: 0.125 µg/mL
- MIC of meropenem in combination with the inhibitor (MER + inhibitor) [6]: <0.125 µg/mL
- Antibacterial activity, MIC, inhibitor Alone ([7]; compound alone, no antibiotic): >64 µg/mL
- MIC of imipenem in combination with the inhibitor (IMI + inhibitor) [7]: 0.25 µg/mL
- MIC of meropenem in combination with the inhibitor (MER + inhibitor) [7]: <0.125 µg/mL
- Antibacterial activity, MIC, inhibitor Alone ([8]; compound alone, no antibiotic): >64 µg/mL
- MIC of imipenem in combination with the inhibitor (IMI + inhibitor) [8]: 0.25 µg/mL
- MIC of meropenem in combination with the inhibitor (MER + inhibitor) [8]: 0.125 µg/mL
- Antibacterial activity, MIC, inhibitor Alone ([9]; compound alone, no antibiotic): >64 µg/mL
- MIC of imipenem in combination with the inhibitor (IMI + inhibitor) [9]: 0.5 µg/mL
- MIC of meropenem in combination with the inhibitor (MER + inhibitor) [9]: 0.125 µg/mL
- Antibacterial activity, MIC, inhibitor Alone ([10]; compound alone, no antibiotic): >64 µg/mL
- MIC of imipenem in combination with the inhibitor (IMI + inhibitor) [10]: 0.25 µg/mL
- MIC of meropenem in combination with the inhibitor (MER + inhibitor) [10]: 0.125 µg/mL

Structure (SMILES): COC(=O)CS(=O)(=O)NC(=N)[C@@H]1CC[C@@H]2CN1C(=O)N2OS(=O)(=O)[O-].[Na+] [Ex. 2, Sodium (2S,5R)-2-(N-((2-methoxy-2-oxoethyl)sulfonyl)caramimidoyl)-7-oxo-1,6-diazabicyclo[3.2.1]octan-6-yl sulfate]
- MIC of meropenem in combination with the inhibitor (MER + inhibitor) [1, 13]: 0.5 µg/mL
- MIC of imipenem in combination with the inhibitor (IMI + inhibitor) [2]: 0.25 µg/mL
- MIC of meropenem in combination with the inhibitor (MER + inhibitor) [2]: <0.125 µg/mL
- MIC of imipenem in combination with the inhibitor (IMI + inhibitor) [3]: 0.5 µg/mL
- MIC of meropenem in combination with the inhibitor (MER + inhibitor) [3]: <0.125 µg/mL
- MIC of imipenem in combination with the inhibitor (IMI + inhibitor) [4]: <0.125 µg/mL
- MIC of meropenem in combination with the inhibitor (MER + inhibitor) [4]: <0.125 µg/mL
- MIC of imipenem in combination with the inhibitor (IMI + inhibitor) [6]: <0.125 µg/mL
- MIC of meropenem in combination with the inhibitor (MER + inhibitor) [6]: <0.125 µg/mL
- MIC of imipenem in combination with the inhibitor (IMI + inhibitor) [7]: <0.125 µg/mL
- MIC of meropenem in combination with the inhibitor (MER + inhibitor) [7]: <0.125 µg/mL
- MIC of imipenem in combination with the inhibitor (IMI + inhibitor) [8]: 0.25 µg/mL
- MIC of meropenem in combination with the inhibitor (MER + inhibitor) [8]: 0.125 µg/mL
- MIC of imipenem in combination with the inhibitor (IMI + inhibitor) [9]: 1.0 µg/mL
- MIC of meropenem in combination with the inhibitor (MER + inhibitor) [9]: <0.125 µg/mL
- MIC of imipenem in combination with the inhibitor (IMI + inhibitor) [10]: 1.0 µg/mL
- MIC of meropenem in combination with the inhibitor (MER + inhibitor) [10]: 0.125 µg/mL

Structure (SMILES): COCCS(=O)(=O)NC(=N)[C@@H]1CC[C@@H]2CN1C(=O)N2OS(=O)(=O)[O-].[Na+] [Ex. 3, Sodium (2S,5R)-2-(N-((2-methoxyethyl)sulfonyl)carbamimidoyl)-7-oxo-1,6-diazabicyclo[3.2.1]octan-6-yl sulfate]
- MIC [1, 11]: > 64 µg/mL
- MIC [2, 12]: > 64 µg/mL
- MIC [3, 12]: > 64 µg/mL
- MIC [4, 12]: > 64 µg/mL
- MIC [5]: > 64 µg/mL
- MIC [6, 12]: > 64 µg/mL
- MIC [7, 12]: > 64 µg/mL
- MIC [8, 12]: > 64 µg/mL
- MIC [9, 12]: > 64 µg/mL
- MIC [10, 12]: > 64 µg/mL

Structure (SMILES): Cn1cnc(S(=O)(=O)NC(=N)[C@@H]2CC[C@@H]3CN2C(=O)N3OS(=O)(=O)[O-])c1.[Na+] [Ex. 7, Sodium (2S,5R)-2-(N-((1-methyl-1H-imidazol-4-yl)sulfonyl)carbamimidoyl)-7-oxo-1,6-diazabicyclo[3.2.1]octan-6-yl sulfate]
- MIC [1, 11]: > 64 µg/mL
- MIC [2, 12]: > 64 µg/mL
- MIC [3, 12]: > 64 µg/mL
- MIC [4, 12]: > 64 µg/mL
- MIC [5]: > 64 µg/mL
- MIC [6, 12]: > 64 µg/mL
- MIC [7, 12]: > 64 µg/mL
- MIC [8, 12]: > 64 µg/mL
- MIC [9, 12]: > 64 µg/mL

Structure (SMILES): C[C@@H](O)[C@H]1C(=O)N2C(C(=O)O)=C(SCCN=CN)C[C@H]12 [IMI, imipenem, reference compound]
- MIC ([1]; read-out: MIC, IMI Alone): 2 µg/mL
- MIC [2, 14]: 0.5 µg/mL
- MIC [3, 14]: 0.5 µg/mL
- MIC [4, 14]: 4 µg/mL
- MIC [6, 14]: 0.5 µg/mL
- MIC [7, 14]: 4 µg/mL
- MIC [8, 14]: 2 µg/mL
- MIC [9, 14]: 4 µg/mL
- MIC [10, 14]: 2 µg/mL

Structure (SMILES): C[C@@H](O)[C@H]1C(=O)N2C(C(=O)O)=C(S[C@@H]3CN[C@H](C(=O)N(C)C)C3)[C@H](C)[C@H]12 [MER, meropenem, reference compound]
- MIC ([1]; read-out: MIC, MER Alone): 2 µg/mL
- MIC [2, 15]: 4 µg/mL
- MIC [3, 15]: 4 µg/mL
- MIC [4, 15]: 4 µg/mL
- MIC [6, 15]: 4 µg/mL
- MIC [7, 15]: 2 µg/mL
- MIC [8, 15]: 4 µg/mL
- MIC [9, 15]: 4 µg/mL
- MIC [10, 15]: 4 µg/mL
